From patent US20160046618A1, “Cyclopropyl Fused Thiazin-2-Amine Compounds as Beta-Secretase Inhibitors and Methods of Use” (AMGEN INC., priority 2014, published 2016)
Read-outs that look alike come from different tables or passages of the source.

Experiments:
[1] = system: Aβ40 in conditioned medium of cells stably expressing Amyloid Precursor Protein (APP); assay: In vitro BACE-1 cell-based assay (Aβ40 sandwich ELISA); conditions: read-out: IC50 IP (μM) BACE1 cell
Procedure: In Vitro BACE-1 Cell-Based Assay
The cell-based assay measures inhibition or reduction of Aβ40 in conditioned medium of test compound treated cells expressing amyloid precursor protein. Cells stably expressing Amyloid Precursor Protein (APP) were plated at a density of 40K cells/well in 96 well plates (Costar). The cells were cultivated for 24 hours at 37° C. and 5% CO2 in DMEM supplemented with 10% FBS. The test compounds were then added to cells in 10-point dose response concentrations with the starting concentration being either 100 μM or 10 μM. The compounds were diluted from stock solutions in DMSO and the final DMSO concentration of the test compounds on cells was 0.1%. After 24 h of incubation with the test compounds the supernatant conditioned media was collected and the Aβ40 levels were determined using a sandwich ELISA. The IC50 of the compound was calculated from the percent of control or percent inhibition of Aβ40 as a function of the concentration of the test compound.
The sandwich ELISA to detect Aβ40 was performed in 96 well microtiter plates, which were pre-treated with goat anti-rabbit IgG (Pierce). The capture and detecting antibody pair that were used to detect Aβ40 from cell supernatants were affinity purified pAb40 (Biosource) and biotinylated 6E10 (Signet Labs Inc.), respectively. The optimal concentration for the pAb40 antibody was 3 μg/ml in Superblock/TBS (Pierce) that was supplemented with 0.05% Tween 20 (Sigma). […] Cellular supernatants were incubated with the capture antibody for 3 h at 4° C., followed by 3 wash steps in TBS-tween (0.05%). The detecting antibody incubation was for 2 h at 4° C., again followed by the wash steps as described previously. The final readout of the ELISA is Time-Resolved Fluorescence (counts per minute) using Delfia reagents Streptavidin-Europium and Enhancement solutions (Perkin Elmer) and the Victor 2 multilabel counter (Perkin Elmer).

[2] = molecular target: human recombinant BACE2 (Homo sapiens (Human), UniProt Q9Y5Z0); assay: In vitro enzymatic BACE2 FRET assay; format: biochemical; conditions: read-out: IC50 IP (μM) BACE2 enzyme
human recombinant BACE2, sequence (Q9Y5Z0 63-518): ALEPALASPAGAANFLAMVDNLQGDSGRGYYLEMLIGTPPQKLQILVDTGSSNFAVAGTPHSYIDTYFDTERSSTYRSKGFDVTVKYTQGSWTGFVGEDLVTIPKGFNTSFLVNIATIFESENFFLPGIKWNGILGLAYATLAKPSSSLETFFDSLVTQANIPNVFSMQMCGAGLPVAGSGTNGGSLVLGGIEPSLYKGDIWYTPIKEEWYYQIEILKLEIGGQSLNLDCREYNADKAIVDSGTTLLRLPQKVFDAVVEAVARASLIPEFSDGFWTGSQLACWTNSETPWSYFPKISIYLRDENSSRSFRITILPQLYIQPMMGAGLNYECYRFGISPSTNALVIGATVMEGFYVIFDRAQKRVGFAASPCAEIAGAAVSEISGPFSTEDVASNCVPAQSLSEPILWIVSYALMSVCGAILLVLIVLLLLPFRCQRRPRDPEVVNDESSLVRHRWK
Procedure: (§1) These recombinant proteins were further purified using Ni-NTA affinity chromatography (Qiagen). […] This assay is effectively started by the addition of FRET substrate (50 nM) and the combination is incubated for one hour. The FRET assay is terminated by addition of Tris buffer, which raises the pH to neutrality, and the fluorescence is determined. The FRET substrate is a peptide with commercially available fluorophore and quencher, on opposite sides of the BACE cleavage site. Proteolytic cleavage of the FRET substrate releases quenching of fluorescence (excitation 488 nm and emission 590 nm).

[3] = molecular target: Recombinant Cat D (Homo sapiens (Human), UniProt P07339); assay: In vitro enzymatic Cathepsin D (Cat D) FRET assay; format: biochemical; conditions: read-out: IC50 IP (μM) CatD
Recombinant Cat D, sequence (P07339 65-412): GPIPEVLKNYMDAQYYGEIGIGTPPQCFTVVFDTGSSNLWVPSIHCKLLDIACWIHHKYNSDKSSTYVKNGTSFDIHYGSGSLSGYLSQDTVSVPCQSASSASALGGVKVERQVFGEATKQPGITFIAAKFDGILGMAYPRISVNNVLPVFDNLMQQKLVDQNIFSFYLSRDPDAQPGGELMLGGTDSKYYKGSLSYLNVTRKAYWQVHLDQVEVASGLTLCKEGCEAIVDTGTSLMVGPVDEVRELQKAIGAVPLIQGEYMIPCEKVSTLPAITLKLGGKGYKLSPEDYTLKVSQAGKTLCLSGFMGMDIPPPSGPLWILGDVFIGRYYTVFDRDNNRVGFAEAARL
Procedure: In Vitro Enzymatic Cathepsin D (Cat D) FRET (Fluorescence Resonance Energy Transfer) Assay
Recombinant Cat D was expressed in CHO cells. The assay buffer for CathepsinD is 0.05 M citrate pH 3.5, 10% DMSO final, 5 mM CHAPS. […] The assays are effectively started by the addition of different FRET substrates (20 nM for Cat D) and the combination is incubated for one hour. The FRET assay is terminated with by addition of Tris buffer, which raises the pH to neutrality, and the fluorescence is determined. The FRET substrate is a peptide with commercially available fluorophore and quencher, on opposite sides of the BACE cleavage site. The Cat D substrate peptide sequence is based on sequence #1 of Table 1 from Gulnik et al. FEBS Letters v413 p 379-384 1997. Proteolytic cleavage of the FRET substrate releases quenching of fluorescence (Cat D excitation 500 nm and emission 580 nm).

[4] = molecular target: human recombinant BACE1 (Homo sapiens (Human), UniProt P56817); assay: In vitro enzymatic BACE1 FRET assay; format: biochemical; conditions: read-out: IC50 IP (μM) BACE1 enzyme
human recombinant BACE1, sequence (P56817 46-501): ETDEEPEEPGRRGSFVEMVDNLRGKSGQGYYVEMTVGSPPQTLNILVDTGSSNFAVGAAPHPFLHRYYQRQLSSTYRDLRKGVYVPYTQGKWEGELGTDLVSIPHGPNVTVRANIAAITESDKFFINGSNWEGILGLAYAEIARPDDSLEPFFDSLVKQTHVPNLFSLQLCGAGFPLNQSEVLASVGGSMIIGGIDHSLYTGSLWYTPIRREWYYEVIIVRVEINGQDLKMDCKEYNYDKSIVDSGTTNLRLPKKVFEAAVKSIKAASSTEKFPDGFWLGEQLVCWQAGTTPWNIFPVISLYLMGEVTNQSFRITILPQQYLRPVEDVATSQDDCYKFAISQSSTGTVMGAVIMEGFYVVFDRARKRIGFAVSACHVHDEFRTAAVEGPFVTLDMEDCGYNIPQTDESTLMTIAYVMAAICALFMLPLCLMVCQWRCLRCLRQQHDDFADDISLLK
Procedure: as §1

| Compound | IC50 [1] | IC50 [2] | IC50 [3] | IC50 [4] | IC50 ([1]; BACE1 cell-based assay) | IC50 ([2]; BACE2 FRET enzyme assay) | IC50 ([3]; Cathepsin D FRET enzyme assay) | IC50 ([4]; BACE1 FRET enzyme assay) |
| --- | --- | --- | --- | --- | --- | --- | --- | --- |
| NC1=N[C@](CF)(c2cc(NC(=O)c3ccc(Cl)cn3)ccc2F)[C@@H]2[C@H]3CSC[C@]32S1 (mixture of isomers) [Example 752, N-(3-((4S,4aR,7aS)-2-amino-4-(fluoromethyl)-4a,4b,5,7-tetrahydro-4H-thieno[3′,4′:2,3]cyclopropa[1,2-e][1,3]thiazin-4-yl)-4-fluorophenyl)-5-chloropicolinamide and N-(3-((4S,4aS,7aR)-2-amino-4-(fluoromethyl)-4a,4b,5,7-tetrahydro-4H-thieno[3′,4′:2,3]cyclopropa[1,2-e][1,3]thiazin-4-yl)-4-fluorophenyl)-5-chloropicolinamide] | 0.0522 µM | 0.00709 µM | 26.4 µM | 0.0068 µM |  |  |  |  |
| COC[C@]12C[C@H]1[C@@](C)(c1cc(NC(=O)c3cnc(OC(C)C(F)(F)F)cn3)ccc1F)N=C(N)S2 (mixture of isomers) [Example 968, N-(3-((1S,5S,6S)-3-amino-1-(methoxymethyl)-5-methyl-2-thia-4-azabicyclo[4.1.0]hept-3-en-5-yl)-4-fluorophenyl)-5-((1,1,1-trifluoropropan-2-yl)oxy)pyrazine-2-carboxamide] | 0.12 µM | 1.1 µM | > 400 µM | 0.129 µM |  |  |  |  |
| C=C[C@@H](C)Oc1cnc(C(=O)Nc2ccc(F)c([C@@]3(C)N=C(N)S[C@@]4(COC)C[C@H]43)c2)cn1 (mixture of isomers) [Example 1051, N-(3-((1S,5S,6S)-3-amino-1-(methoxymethyl)-5-methyl-2-thia-4-azabicyclo[4.1.0]hept-3-en-5-yl)-4-fluorophenyl)-5-(((1R)-1-methyl-2-propen-1-yl)oxy)-2-pyrazinecarboxamide, N-(3-((1S,5S,6S)-3-amino-1-(methoxymethyl)-5-methyl-2-thia-4-azabicyclo[4.1.0]hept-3-en-5-yl)-4-fluorophenyl)-5-(((1S)-1-methyl-2-propen-1-yl)oxy)-2-pyrazinecarboxamide] | 0.035 µM | 0.345 µM | > 400 µM | 0.033 µM |  |  |  |  |
| COC[C@]12C[C@H]1[C@@](C)(c1cc(NC(=O)c3cnc(O[C@@H](C)C(F)(F)F)cn3)ccc1F)N=C(N)S2 (single isomer, unassigned) [Example 995] | 0.164 µM | 1.77 µM | 1940 µM | 0.101 µM |  |  |  |  |
| COC[C@]12C[C@H]1[C@@](C)(c1cc(NC(=O)c3cnc(O[C@H](C)C(F)(F)F)cn3)ccc1F)N=C(N)S2 (single isomer, unassigned) [Example 996] | 0.12 µM | 0.807 µM | 1640 µM | 0.123 µM |  |  |  |  |
| NC1=N[C@](CF)(c2cc(Nc3nncc4cc(Br)cnc34)ccc2F)C2C[C@@H]2S1 (stereo in doubt) [Example 67, N-(3-((1S,5S,6S)-3-amino-5-(fluoromethyl)-2-thia-4-azabicyclo[4.1.0]hept-3-en-5-yl)-4-fluorophenyl)-3-bromopyrido[2,3-d]pyridazin-8-amine] |  |  |  |  | 0.0208 µM | 0.00616 µM | 738 µM | 0.0137 µM |
| NC1=N[C@](CF)(c2cc(Nc3nccc4nc(C(F)(F)F)cnc34)ccc2F)C2C[C@@H]2S1 (stereo in doubt) [Example 87, N-(3-((1S,5S,6S)-3-amino-5-(fluoromethyl)-2-thia-4-azabicyclo[4.1.0]hept-3-en-5-yl)-4-fluorophenyl)-2-(trifluoromethyl)pyrido[3,4-b]pyrazin-5-amine] |  |  |  |  | 22.6 µM | 0.271 µM | 2810 µM | 0.114 µM |
| COc1cnc2c(Nc3ccc(F)c([C@@]4(CF)N=C(N)S[C@H]5CC54)c3)ncnc2c1 (stereo in doubt) [Example 88, N-(3-((1S,5S,6S)-3-amino-5-(fluoromethyl)-2-thia-4-azabicyclo[4.1.0]hept-3-en-5-yl)-4-fluorophenyl)-7-methoxypyrido[3,2-d]pyrimidin-4-amine] |  |  |  |  | 0.0264 µM | 0.137 µM | > 400 µM | 0.0416 µM |
| Cc1cc(C#N)cnc1C(=O)Nc1ccc(F)c([C@@]2(CF)N=C(N)S[C@H]3C[C@H]32)c1 [Example 3, N-(3-((1S,5S,6S)-3-amino-5-(fluoromethyl)-2-thia-4-azabicyclo[4.1.0]hept-3-en-5-yl)-4-fluorophenyl)-5-cyano-3-methylpicolinamide] |  |  |  |  | 0.00522 µM | 0.0108 µM | 437 µM | 0.00838 µM |
| COC[C@]12C[C@H]1[C@@](C)(c1cc(Nc3nccc4cc(Cl)cnc34)cc(F)c1F)N=C(N)S2 [Example 24, N-(3-((1S,5S,6S)-3-amino-1-(methoxymethyl)-5-methyl-2-thia-4-azabicyclo[4.1.0]hept-3-en-5-yl)-4,5-difluorophenyl)-3-chloro-1,7-naphthyridin-8-amine] |  |  |  |  | 0.0191 µM |  | 189 µM | 0.00188 µM |
| CCOC(=O)[C@]12C[C@H]1[C@@](C)(c1cc(Nc3nccc4cc(Cl)cnc34)cc(F)c1F)N=C(N)S2 [Example 25, (1S,5S,6S)-ethyl 3-amino-5-(5-((3-chloro-1,7-naphthyridin-8-yl)amino)-2,3-difluorophenyl)-5-methyl-2-thia-4-azabicyclo[4.1.0]hept-3-ene-1-carboxylate] |  |  |  |  | 0.571 µM |  | 48.7 µM | 0.0025 µM |
| N#Cc1cnc2c(Nc3cc(F)c(F)c([C@@]4(CF)N=C(N)S[C@@H]5C[C@@H]54)c3)nccc2c1 [Example 27, 8-((3-((1R,5S,6R)-3-amino-5-(fluoromethyl)-2-thia-4-azabicyclo[4.1.0]hept-3-en-5-yl)-4,5-difluorophenyl)amino)-1,7-naphthyridine-3-carbonitrile] |  |  |  |  | 0.013 µM |  | 33.5 µM | 0.0235 µM |
| C[C@]1(c2cc(Nc3nccc4cc(Cl)cnc34)cc(F)c2F)N=C(N)S[C@@]2(CO)C[C@H]21 [Example 30, ((1S,5S,6S)-3-amino-5-(5-((3-chloro-1,7-naphthyridin-8-yl)amino)-2,3-difluorophenyl)-5-methyl-2-thia-4-azabicyclo[4.1.0]hept-3-en-1-yl)methanol] |  |  |  |  | 0.00851 µM | < 0.00203 µM | 958 µM | 0.00152 µM |
| NC1=N[C@](CF)(c2cc(NC(=O)c3ccc(Cl)cn3)cc(F)c2F)[C@@H]2C[C@]2(CO)S1 [Example 31, N-(3-((1S,5S,6S)-3-amino-5-(fluoromethyl)-1-(hydroxymethyl)-2-thia-4-azabicyclo[4.1.0]hept-3-en-5-yl)-4,5-difluorophenyl)-5-chloropicolinamide] |  |  |  |  | 0.00226 µM | 0.00109 µM | 1400 µM | 0.00206 µM |
| C#CCOc1cnc2c(Nc3cc(F)c(F)c([C@@]4(C)N=C(N)S[C@H]5C[C@H]54)c3)nccc2c1 [Example 32, N-(3-((1S,5S,6S)-3-amino-5-methyl-2-thia-4-azabicyclo[4.1.0]hept-3-en-5-yl)-4,5-difluorophenyl)-3-(2-propyn-1-yloxy)-1,7-naphthyridin-8-amine] |  |  |  |  | 0.0836 µM | 0.304 µM | 138 µM | 0.0212 µM |
| C#CCCOc1cnc(C(=O)Nc2ccc(F)c([C@@]3(C)N=C(N)S[C@@]4(COC)C[C@H]43)c2)cn1 [Example 1048, N-(3-((1S,5S,6S)-3-amino-1-(methoxymethyl)-5-methyl-2-thia-4-azabicyclo[4.1.0]hept-3-en-5-yl)-4-fluorophenyl)-5-(3-butyn-1-yloxy)-2-pyrazinecarboxamide] | 0.0095 µM | 0.152 µM |  | 0.0078 µM |  |  |  |  |
